Experimental data reported in PubChem BioAssay (NCI).
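All cell lines were grown in 96-well plates and treated with compound for 48 hours. TGI marks complete inhibition of growth.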

The compounds below were run on PC-3 prostate (assay: NCI anticancer screen, dose series, 48 h).

SMILES | TGI [µM]
C=C1C(=O)O[C@H]2C1C[C@H](O)[C@@]1(C)OC1CC[C@@]1(C)O[C@H]21 (stereo partly specified) | 39.1
O=C(NCCNCCNC(=O)c1cc(-c2ccccc2)nc2ccccc12)c1cc(-c2ccccc2)nc2ccccc12 | 8.88
CCOC(=O)c1nc2ccc(C(F)(F)F)cc2nc1Nc1ccc(OC)cc1 | > 100
Cn1nnc2c3c(N(CCO)CCO)ccnc3ccc21 | > 100
COc1ccc(-c2nc(-c3cnccn3)n(C3OC(CO)C(O)C3O)n2)cc1 (stereo unspecified) | > 10
CC(=O)[C@H]1[C@H](O)C[C@@]2(C)[C@@H]3CCc4cc(O)c(OC5OC(CO)C(O)C(O)C5O)cc4C3(C)C(=O)C[C@]12C (stereo partly specified) | > 100
CC(C)(O)c1cc2c(cc1C(C)(C)O)-c1ccccc1-2 | > 100
CCCc1nc2c(n1CC)C(=O)c1ccccc1C2=O | > 100
CC(Oc1ccc(Cl)cc1Cl)C(=O)NN1C(=O)CC(=O)N(c2ccccc2)C1=S (stereo unspecified) | > 100
O=C(NCCN1CCCCC1)c1cccc(I)c1 | > 100
COC(=O)[C@@](NC(=O)OCc1ccccc1)([C@H](C)O)C(F)(F)F | > 100
CO/C(=N\N=C\c1ccc(Cl)c(Cl)c1)c1ccncc1 | > 10
CC(=O)/C(=C\I)c1ccccc1 | 5.08
CCOC(=O)c1c[nH]c(C(=O)C=[N+]=[N-])c1C1CCN(CC)C1=S (stereo unspecified) | > 100
Cc1cc(NS(=O)(=O)c2ccc(N=[N+]([O-])c3ccc(S(=O)(=O)Nc4cc(C)on4)cc3)cc2)no1 | > 100
COC(=O)C(=O)C(C(=O)C(=O)Nc1ccc(C)cc1C)c1nc2ccc(Cl)cc2[nH]c1=O (stereo unspecified) | > 100
Cc1ccc(S(=O)(=O)N/N=C2/CCC3(O)CC2(C)CCC2[C@H]3CC2(C)C)cc1 (stereo partly specified) | 65.1
CC1=CCC(C(C)(C)NC(=O)c2ccccc2)C/C1=N/O (stereo unspecified) | > 100
CCSC1=N/C(=C\c2ccco2)C(=O)N1 | > 100
COc1cc(C2c3cc4c(cc3C(=O)C3CCC(=O)N32)OCO4)cc(OC)c1O (stereo unspecified) | > 50
Cc1cn(C2CC(N=[N+]=[N-])C(COP(=O)(O)OCC3OC(n4cc(F)c(=O)[nH]c4=O)CC3O)O2)c(=O)[nH]c1=O (stereo unspecified) | > 100

These compounds were tested on UO-31 renal (assay: NCI anticancer screen, dose series, 48 h).

SMILES | TGI [µM]
C=C1C(=O)O[C@H]2C1C[C@H](O)[C@@]1(C)OC1CC[C@@]1(C)O[C@H]21 (stereo partly specified) | 31
O=C(NCCNCCNC(=O)c1cc(-c2ccccc2)nc2ccccc12)c1cc(-c2ccccc2)nc2ccccc12 | 6.94
COc1cc([C@@H]2c3cc4c(cc3[C@@H](Nc3ccc(Cl)cc3C(=O)c3ccccc3)[C@H]3COC(=O)[C@H]23)OCO4)cc(OC)c1OC | > 100
Cc1cc(O)c(/C=N/C(=S)Nc2ccc(S(N)(=O)=O)cc2)c(=O)o1 | > 100
CCOC(=O)c1nc2ccc(C(F)(F)F)cc2nc1Nc1ccc(OC)cc1 | > 100
Cn1nnc2c3c(N(CCO)CCO)ccnc3ccc21 | > 100
COc1ccc(-c2nc(-c3cnccn3)n(C3OC(CO)C(O)C3O)n2)cc1 (stereo unspecified) | > 10
Cc1ccc(S(=O)(=O)N2CCSCCSCCSCCN(S(=O)(=O)c3ccc(C)cc3)CC2)cc1 | > 100
CC(=O)[C@H]1[C@H](O)C[C@@]2(C)[C@@H]3CCc4cc(O)c(OC5OC(CO)C(O)C(O)C5O)cc4C3(C)C(=O)C[C@]12C (stereo partly specified) | > 100
CC(Oc1ccc(Cl)cc1Cl)C(=O)NN1C(=O)CC(=O)N(c2ccccc2)C1=S (stereo unspecified) | > 100
O=C(NCCN1CCCCC1)c1cccc(I)c1 | > 100
COC(=O)[C@@](NC(=O)OCc1ccccc1)([C@H](C)O)C(F)(F)F | > 100
CO/C(=N\N=C\c1ccc(Cl)c(Cl)c1)c1ccncc1 | > 10
CC(=O)/C(=C\I)c1ccccc1 | 10.3
CCOC(=O)c1c[nH]c(C(=O)C=[N+]=[N-])c1C1CCN(CC)C1=S (stereo unspecified) | > 100
Cc1cc(NS(=O)(=O)c2ccc(N=[N+]([O-])c3ccc(S(=O)(=O)Nc4cc(C)on4)cc3)cc2)no1 | > 100
COC(=O)/C=C(\C)CCC1SC1(C)C (stereo unspecified) | > 100
COC(=O)C(=O)C(C(=O)C(=O)Nc1ccc(C)cc1C)c1nc2ccc(Cl)cc2[nH]c1=O (stereo unspecified) | > 100
Cc1ccc(S(=O)(=O)N/N=C2/CCC3(O)CC2(C)CCC2[C@H]3CC2(C)C)cc1 (stereo partly specified) | 68.6
CC1=CCC(C(C)(C)NC(=O)c2ccccc2)C/C1=N/O (stereo unspecified) | > 100
CCSC1=N/C(=C\c2ccco2)C(=O)N1 | > 100
COc1ccc(-c2nc(Nc3ccccc3)sc2Cc2sc(Nc3ccccc3)nc2-c2ccc(OC)cc2)cc1 | > 100
Cc1ccc(S(=O)(=O)N2CCNCCN(S(=O)(=O)c3ccc(C)cc3)CCNCC2)cc1 | 62.6
COc1cc(C2c3cc4c(cc3C(=O)C3CCC(=O)N32)OCO4)cc(OC)c1O (stereo unspecified) | > 50
Cc1cn(C2CC(N=[N+]=[N-])C(COP(=O)(O)OCC3OC(n4cc(F)c(=O)[nH]c4=O)CC3O)O2)c(=O)[nH]c1=O (stereo unspecified) | > 100

Each compound was assayed on MDA-MB-435 (assay: NCI anticancer screen, dose series, 48 h).

SMILES | TGI [µM]
C=C1C(=O)O[C@H]2C1C[C@H](O)[C@@]1(C)OC1CC[C@@]1(C)O[C@H]21 (stereo partly specified) | 53.2
O=C(NCCNCCNC(=O)c1cc(-c2ccccc2)nc2ccccc12)c1cc(-c2ccccc2)nc2ccccc12 | 3.34
Cc1cc(O)c(/C=N/C(=S)Nc2ccc(S(N)(=O)=O)cc2)c(=O)o1 | > 100
CCOC(=O)c1nc2ccc(C(F)(F)F)cc2nc1Nc1ccc(OC)cc1 | > 100
Cn1nnc2c3c(N(CCO)CCO)ccnc3ccc21 | > 100
COc1ccc(-c2nc(-c3cnccn3)n(C3OC(CO)C(O)C3O)n2)cc1 (stereo unspecified) | > 10
Cc1ccc(S(=O)(=O)N2CCSCCSCCSCCN(S(=O)(=O)c3ccc(C)cc3)CC2)cc1 | > 100
CC(=O)[C@H]1[C@H](O)C[C@@]2(C)[C@@H]3CCc4cc(O)c(OC5OC(CO)C(O)C(O)C5O)cc4C3(C)C(=O)C[C@]12C (stereo partly specified) | > 100
CC(C)(O)c1cc2c(cc1C(C)(C)O)-c1ccccc1-2 | > 100
CCCc1nc2c(n1CC)C(=O)c1ccccc1C2=O | 32.3
CC(Oc1ccc(Cl)cc1Cl)C(=O)NN1C(=O)CC(=O)N(c2ccccc2)C1=S (stereo unspecified) | > 100
COC(=O)[C@@](NC(=O)OCc1ccccc1)([C@H](C)O)C(F)(F)F | > 100
CC(=O)/C(=C\I)c1ccccc1 | 12.8
CCOC(=O)c1c[nH]c(C(=O)C=[N+]=[N-])c1C1CCN(CC)C1=S (stereo unspecified) | > 100
Cc1cc(NS(=O)(=O)c2ccc(N=[N+]([O-])c3ccc(S(=O)(=O)Nc4cc(C)on4)cc3)cc2)no1 | > 100
COC(=O)C(=O)C(C(=O)C(=O)Nc1ccc(C)cc1C)c1nc2ccc(Cl)cc2[nH]c1=O (stereo unspecified) | > 100
Cc1ccc(S(=O)(=O)N/N=C2/CCC3(O)CC2(C)CCC2[C@H]3CC2(C)C)cc1 (stereo partly specified) | 57.7
CC1=CCC(C(C)(C)NC(=O)c2ccccc2)C/C1=N/O (stereo unspecified) | > 100
CCSC1=N/C(=C\c2ccco2)C(=O)N1 | > 100
COc1ccc(-c2nc(Nc3ccccc3)sc2Cc2sc(Nc3ccccc3)nc2-c2ccc(OC)cc2)cc1 | > 100
Cc1ccc(S(=O)(=O)N2CCNCCN(S(=O)(=O)c3ccc(C)cc3)CCNCC2)cc1 | 36.4
COc1cc(C2c3cc4c(cc3C(=O)C3CCC(=O)N32)OCO4)cc(OC)c1O (stereo unspecified) | > 50
Cc1cn(C2CC(N=[N+]=[N-])C(COP(=O)(O)OCC3OC(n4cc(F)c(=O)[nH]c4=O)CC3O)O2)c(=O)[nH]c1=O (stereo unspecified) | > 100

Each compound was assayed on SK-MEL-28 melanoma (assay: NCI anticancer screen, dose series, 48 h).

SMILES | TGI [µM]
C=C1C(=O)O[C@H]2C1C[C@H](O)[C@@]1(C)OC1CC[C@@]1(C)O[C@H]21 (stereo partly specified) | 35.9
O=C(NCCNCCNC(=O)c1cc(-c2ccccc2)nc2ccccc12)c1cc(-c2ccccc2)nc2ccccc12 | 3.25
COc1cc([C@@H]2c3cc4c(cc3[C@@H](Nc3ccc(Cl)cc3C(=O)c3ccccc3)[C@H]3COC(=O)[C@H]23)OCO4)cc(OC)c1OC | 78.4
Cc1cc(O)c(/C=N/C(=S)Nc2ccc(S(N)(=O)=O)cc2)c(=O)o1 | > 100
CCOC(=O)c1nc2ccc(C(F)(F)F)cc2nc1Nc1ccc(OC)cc1 | > 100
Cc1ccc(S(=O)(=O)N2CCSCCSCCSCCN(S(=O)(=O)c3ccc(C)cc3)CC2)cc1 | > 100
CC(=O)[C@H]1[C@H](O)C[C@@]2(C)[C@@H]3CCc4cc(O)c(OC5OC(CO)C(O)C(O)C5O)cc4C3(C)C(=O)C[C@]12C (stereo partly specified) | > 100
CC(C)(O)c1cc2c(cc1C(C)(C)O)-c1ccccc1-2 | > 100
CCCc1nc2c(n1CC)C(=O)c1ccccc1C2=O | > 100
CC(Oc1ccc(Cl)cc1Cl)C(=O)NN1C(=O)CC(=O)N(c2ccccc2)C1=S (stereo unspecified) | > 100
O=C(NCCN1CCCCC1)c1cccc(I)c1 | > 100
COC(=O)[C@@](NC(=O)OCc1ccccc1)([C@H](C)O)C(F)(F)F | > 100
CO/C(=N\N=C\c1ccc(Cl)c(Cl)c1)c1ccncc1 | > 10
CC(=O)/C(=C\I)c1ccccc1 | 10.4
CCOC(=O)c1c[nH]c(C(=O)C=[N+]=[N-])c1C1CCN(CC)C1=S (stereo unspecified) | > 100
COC(=O)/C=C(\C)CCC1SC1(C)C (stereo unspecified) | > 100
COC(=O)C(=O)C(C(=O)C(=O)Nc1ccc(C)cc1C)c1nc2ccc(Cl)cc2[nH]c1=O (stereo unspecified) | > 100
Cc1ccc(S(=O)(=O)N/N=C2/CCC3(O)CC2(C)CCC2[C@H]3CC2(C)C)cc1 (stereo partly specified) | 61.2
CC1=CCC(C(C)(C)NC(=O)c2ccccc2)C/C1=N/O (stereo unspecified) | > 100
CCSC1=N/C(=C\c2ccco2)C(=O)N1 | > 100
COc1ccc(-c2nc(Nc3ccccc3)sc2Cc2sc(Nc3ccccc3)nc2-c2ccc(OC)cc2)cc1 | > 100
Cc1ccc(S(=O)(=O)N2CCNCCN(S(=O)(=O)c3ccc(C)cc3)CCNCC2)cc1 | 37.6
COc1cc(C2c3cc4c(cc3C(=O)C3CCC(=O)N32)OCO4)cc(OC)c1O (stereo unspecified) | > 50
Cc1cn(C2CC(N=[N+]=[N-])C(COP(=O)(O)OCC3OC(n4cc(F)c(=O)[nH]c4=O)CC3O)O2)c(=O)[nH]c1=O (stereo unspecified) | > 100

Each compound was assayed on CAKI-1 renal (assay: NCI anticancer screen, dose series, 48 h).

SMILES | TGI [µM]
C=C1C(=O)O[C@H]2C1C[C@H](O)[C@@]1(C)OC1CC[C@@]1(C)O[C@H]21 (stereo partly specified) | 33.5
O=C(NCCNCCNC(=O)c1cc(-c2ccccc2)nc2ccccc12)c1cc(-c2ccccc2)nc2ccccc12 | 24.1
COc1cc([C@@H]2c3cc4c(cc3[C@@H](Nc3ccc(Cl)cc3C(=O)c3ccccc3)[C@H]3COC(=O)[C@H]23)OCO4)cc(OC)c1OC | > 100
Cc1cc(O)c(/C=N/C(=S)Nc2ccc(S(N)(=O)=O)cc2)c(=O)o1 | > 100
Cn1nnc2c3c(N(CCO)CCO)ccnc3ccc21 | > 100
CC(=O)[C@H]1[C@H](O)C[C@@]2(C)[C@@H]3CCc4cc(O)c(OC5OC(CO)C(O)C(O)C5O)cc4C3(C)C(=O)C[C@]12C (stereo partly specified) | > 100
CC(C)(O)c1cc2c(cc1C(C)(C)O)-c1ccccc1-2 | > 100
CC(Oc1ccc(Cl)cc1Cl)C(=O)NN1C(=O)CC(=O)N(c2ccccc2)C1=S (stereo unspecified) | > 100
O=C(NCCN1CCCCC1)c1cccc(I)c1 | > 100
COC(=O)[C@@](NC(=O)OCc1ccccc1)([C@H](C)O)C(F)(F)F | > 100
CO/C(=N\N=C\c1ccc(Cl)c(Cl)c1)c1ccncc1 | > 10
CCOC(=O)c1c[nH]c(C(=O)C=[N+]=[N-])c1C1CCN(CC)C1=S (stereo unspecified) | > 100
Cc1cc(NS(=O)(=O)c2ccc(N=[N+]([O-])c3ccc(S(=O)(=O)Nc4cc(C)on4)cc3)cc2)no1 | > 100
COC(=O)/C=C(\C)CCC1SC1(C)C (stereo unspecified) | > 100
COC(=O)C(=O)C(C(=O)C(=O)Nc1ccc(C)cc1C)c1nc2ccc(Cl)cc2[nH]c1=O (stereo unspecified) | > 100
Cc1ccc(S(=O)(=O)N/N=C2/CCC3(O)CC2(C)CCC2[C@H]3CC2(C)C)cc1 (stereo partly specified) | > 100
COc1ccc(-c2nc(Nc3ccccc3)sc2Cc2sc(Nc3ccccc3)nc2-c2ccc(OC)cc2)cc1 | > 100
Cc1ccc(S(=O)(=O)N2CCNCCN(S(=O)(=O)c3ccc(C)cc3)CCNCC2)cc1 | 73.5
